Test results published in paper PMC7377239, “Cardiovascular Effects of Polychlorinated Biphenyls and Their Major Metabolites” (Environmental Health Perspectives, 2020).
Like-named read-outs stand apart in the source and are kept apart here.

Tested on: HUVECs
Assay: Tube formation (tubulogenesis) assay in HUVECs, 18 h
Format: cell-based, human
Conditions: Homo sapiens, HUVEC, 18 h; for activity at 0.1 µM: 0.10 µM
Protocol: Similar to the cultivation of iCell®-endothelial cells, HUVEC maintenance and experimentation are detailed elsewhere ([Iwata et al. 2017]). Briefly, HUVECs were thawed, seeded, and grown in T75 tissue culture flasks in Medium 199 with EGM™-2 BulletKits™. HUVECs were incubated at regular cell culture conditions, 37°C and 5% CO2 , and passaged every 2–3 d using TrypLE™ Express. To ensure adequate endothelial function, experiments were performed with cells between passages 1 and 5.
Tube formation assays were performed on Geltrex™ LDEV-free reduced growth factor basement membrane using both iCell®-endothelial cells and HUVECs in 384-well format exactly as detailed in Iwata et al. ([2017]). Negative controls included media-only and vehicle control (i.e., 0.5% vol/vol DMSO in cell culture media) wells. Positive assay controls were consistent with previously published reports ([Iwata et al. 2017]) and included TAB ( 50μM ) as a cytotoxic control, and nocodazole ( 0.01–1μM ), suramin ( 0.5–50μM ), histamine ( 0.1–100μM ), and chloroquine ( 1–500μM ) as chemicals associated with specific effects on ECs. Each test chemical was screened in triplicate for each concentration. Briefly, for iCell®-endothelial cells, starvation media consisted of VascuLife® basal medium with 4 mM L-glutamine LifeFactor and 0.1% iCell®-endothelial cells medium supplement. To counter dilution effects, a 2× concentration of the HUVEC maintenance medium supplemented with additional VEGF was created (EGM™-2 BulletKits™ at 2× concentration; also the VEGF component was replaced with 12.5 ng/mL VEGF). Geltrex™ LDEV-free reduced growth factor basement membrane was thawed overnight and dispensed into 384-well plates ( 10μL/well ) with tapping and rotating to evenly coat. The plates were incubated for 1 h in a cell culture incubator at 37°C and 5% CO2 . A 2× PCB plate (containing all of the PCBs and metabolites in dose–response) was prepared in basal media and added, 25μL per well, to the Geltrex™ coated plates. On separate plates, cells were seeded 7,500 (iPSC- ECs) or 3,500 (HUVEC) cells/well. Cells were exposed to chemicals overnight at 37°C and 5% CO2 and stained with 3× concentration of calcein AM ( 25μL /well, 6μmol/L ) for 15 min before imaging. Images were captured at 4× magnification with the FITC filter (calcein AM). Images were analyzed with the angiogenesis module software within MetaXpress™ (Molecular Devices).
Phenotypic responses were quantitatively assessed using concentration–response modeling as detailed elsewhere ([Sirenko et al. 2017]). Briefly, phenotypic readouts were normalized to vehicle controls and fit to a four-parameter logistic model in R studio software (version 3.1.1; R Development Core Team). Following EPA guidance on dose–response modeling, a cutoff of one standard deviation across means of vehicle control (i.e., 0.5% vol/vol DMSO in cell culture media) wells was applied to determine the point-of-departure (POD) values ([U.S. EPA 2012]). In the absence of a concentration–response, the highest tested concentration (i.e., 100μM ) was assigned as “no observable adverse effect level.” The concentration–response assessment R script, as well as templates for vehicle and concentration–response data, are available as a supplement to Sirenko et al. ([2017]). The ability of physicochemical properties to predict differences in PODs were evaluated by multiregression and mixed-effects modeling using R.

[1] = HUVECs, 0.00 µM = 100.00, read-out: huvec.mtl.18hr
[2] = HUVECs, 0.00 µM = 100.00, read-out: huvec.tlps.18hr
[3] = HUVECs, 0.00 µM = 100.00, read-out: huvec.tta.18hr
[4] = HUVECs, 0.00 µM = 100.00, read-out: huvec.ttl.18hr
[5] = HUVECs, top concentration 100.00 µM, read-out: huvec.mtl.18hr POD
[6] = HUVECs, top concentration 100.00 µM, read-out: huvec.tlps.18hr POD
[7] = HUVECs, top concentration 100.00 µM, read-out: huvec.tta.18hr POD
[8] = HUVECs, top concentration 100.00 µM, read-out: huvec.ttl.18hr POD
[9] = tube formation mtl, read-out: POD huvec.mtl.18hr
[10] = tube formation tlps, read-out: POD huvec.tlps.18hr
[11] = tube formation tta, read-out: POD huvec.tta.18hr
[12] = tube formation ttl, read-out: POD huvec.ttl.18hr

SMILES | activity at 0.01 µM [1] [%] | activity at 0.01 µM [2] [%] | activity at 0.01 µM [3] [%] | activity at 0.01 µM [4] [%] | activity at 0.1 µM [1] [%] | activity at 0.1 µM [2] [%] | activity at 0.1 µM [3] [%] | activity at 0.1 µM [4] [%] | activity at 1 µM [1] [%] | activity at 1 µM [2] [%] | activity at 1 µM [3] [%] | activity at 1 µM [4] [%] | activity at 10 µM [1] [%] | activity at 10 µM [2] [%] | activity at 10 µM [3] [%] | activity at 10 µM [4] [%] | activity at 100 µM [1] [%] | activity at 100 µM [2] [%] | activity at 100 µM [3] [%] | activity at 100 µM [4] [%] | further results
Oc1ccc(-c2cccc(Cl)c2)cc1Cl [4-OH PCB11] | 113 | 135 | 121 | 115 | 115 | 127 | 133 | 125 | 112 | 149 | 110 | 107 | 77.3 | 94.8 | 89.2 | 81.5 | 62.9 | 61.6 | 84.3 | 85.2 | minimal effective concentration [5]: 7.09 µM; minimal effective concentration [6]: 35.3 µM; minimal effective concentration [7]: 100 µM; minimal effective concentration [8]: 4.15 µM
Oc1cc(Cl)c(-c2cc(Cl)ccc2Cl)cc1Cl [4-OH PCB52] | 112 | 103 | 129 | 112 | 98.5 | 96.7 | 107 | 98.2 | 94 | 92.4 | 123 | 110 | 91.1 | 77.1 | 98.5 | 87.2 | 69.6 | 35.6 | 168 | 163 | minimal effective concentration [5]: 8.34 µM; minimal effective concentration [6]: 4.13 µM; minimal effective concentration [7]: 51.8 µM; minimal effective concentration [8]: 62.1 µM
Oc1ccc(-c2cccc(Cl)c2)cc1Cl [4-OH-PCB 11] |  |  |  |  |  |  |  |  |  |  |  |  |  |  |  |  |  |  |  |  | minimal effective concentration [9]: 7.09 µM; minimal effective concentration [10]: 35.3 µM; minimal effective concentration [11]: 100 µM; minimal effective concentration [12]: 4.15 µM
Oc1cc(Cl)c(-c2cc(Cl)ccc2Cl)cc1Cl [4-OH-PCB 52] |  |  |  |  |  |  |  |  |  |  |  |  |  |  |  |  |  |  |  |  | minimal effective concentration [9]: 8.34 µM; minimal effective concentration [10]: 4.13 µM; minimal effective concentration [11]: 51.8 µM; minimal effective concentration [12]: 62.1 µM
COc1ccc(-c2cccc(Cl)c2)cc1Cl [4-OMe PCB11] | 124 | 137 | 110 | 93.8 | 107 | 117 | 99.7 | 89.8 | 102 | 99.7 | 108 | 99.4 | 89.2 | 97.9 | 78.8 | 67.3 | 71 | 60.6 | 70.4 | 60.2 | minimal effective concentration [5]: 9.33 µM; minimal effective concentration [6]: 25.8 µM; minimal effective concentration [7]: 100 µM; minimal effective concentration [8]: 1.22 µM
